Assay results as given in patent US4596808A, “Pharmacologically active 3-substituted beta-carbolines useful as tranquilizers” (Schering Aktiengesellschaft, priority 1980, dated 1986).
Like-named read-outs stand apart in the source and are kept apart here.

How the values were obtained:
male mice = test: Inhibition of aggression in isolated male mice; format: in vivo; conditions: Mus musculus, 0.5 h, half an hour
Procedure: The compounds of the invention have an antiaggressive effect on mice. Aggression inhibition was determined on male mice (NMR from Moellegard, Denmark) with weights of 20-22 g. The mice are kept isolated for three weeks in plastic cages and when two mice are subsequently put into the same cage, they will spontaneously and almost instantaneously start to fight.
J. Pharmacol., 1978, 47, 45-49. The compounds of this invention were administered subcutaneously and orally and the anti-aggressive effect half an hour later was determined. The ED50 values were determined from the test results. These test results are listed in Table 2 for compounds of this invention and also for several known tranquilizers.

benzodiazepine receptor [1] = test: In vivo inhibition of 3H-flunitrazepam binding to the benzodiazepine receptor in living brain (ED50); conditions: mice, subcutaneous, 3H-flunitrazepam i.v. 15 min later
benzodiazepine receptor [2] = test: Displacement of 3H-flunitrazepam from benzodiazepine receptors in vitro (IC50); format: binding; conditions: rat forebrain, 3H-flunitrazepam 1.0 nM, 0° C.
Description: For example, it is known that certain locations in the central nervous system of vertebrates have a high specific affinity for bonding 1,4 and 1,5-benzodiazepines. (See, e.g., R. F. Squires & C. Braestrup, Nature [London] 266 [1977], 734, which is incorporated by reference herein). These locations are called benzodiazepine receptors.
This displacement activity of the compounds of this invention has been determined by measuring IC50 and ED50 values. The IC50 value is the concentration which causes a 50% displacement of the specific binding of ^3 H-flunitrazepam (1.0 nM, 0° C.) in samples with a total volume of 0.55 ml of a suspension of brain membrane, e.g., from rats.
The displacement test is carried out as follows:
0.5 ml of a suspension of untreated rat forebrain in 25 mM KH2 PO4, at a pH of 7.1 (5-10 mg of tissue per sample) were incubated with ^3 H-diazepam (specific activity 14.4 Ci/millimole, 1.9 nM) or ^3 H-flunitrazepam (specific activity 87 Ci/millimole, 1.0 nM) for 40-60 minutes at 0° C. After incubation, the suspension is filtered through a glass frit, the residue is washed twice with a cold buffer solution and the radioactivity is measured by scintillation counting.
The test is then repeated, except prior to addition of the radioactively marked benzodiazepine, a given amount or an excess amount of the compound whose displacement activity is to be ascertained, is added. The IC50 value can then be computed from the test results obtained.

[3] = system: pentazole-induced convulsions; test: Antagonism of pentazole-induced convulsions; format: in vivo; conditions: sc
Description: Moreover, the antagonism of pentazole-induced convulsions was investigated.
The test has been performed according to known test models in pharmacology,e.g., described in R. A. Turner, Screening Methods in Pharmacology, Academic Press, N.Y. and London 1965, esp. p. 164 ff., or, Woodbury, P. M., Perry, I. K. and Schmidt, R. P. Antiepileptic Drugs, Raven Press, N.Y. 1972.

[4] = sc, s.c., read-out: Inhibition of Aggression ED50, s.c.
[5] = clonic, read-out: Antagonism of pentazole-induced convulsions, ED50 s.c., Clonic convulsions
[6] = death, read-out: Antagonism of pentazole-induced convulsions, ED50 s.c., Death
[7] = tonic, read-out: Antagonism of pentazole-induced convulsions, ED50 s.c., Tonic convulsions
[8] = po, p.o., read-out: Inhibition of Aggression ED50, p.o.

Compound	ED50 (male mice; [4]) [mg/kg]	In vivo ED50, inhibition of 3H flunitrazepam binding (Affinity for the benzodiazepine receptor) (benzodiazepine receptor [1]) [mg/kg]	In vitro IC50, inhibition of 3H flunitrazepam binding (Affinity for the benzodiazepine receptor) (benzodiazepine receptor [2]) [µg/mL]	ED50 [3, 5] [mg/kg]	ED50 [3, 6] [mg/kg]	ED50 [3, 7] [mg/kg]	ED50 (male mice; [8]) [mg/kg]
CCOC(=O)Cc1cc2c(cn1)[nH]c1ccccc12 [CH2 COOC2 H5]	75	> 250	0.363				
CCOC(=O)C=Cc1cc2c(cn1)[nH]c1ccccc12 [CHCHCOOC2 H5, ethyl-3-(3-beta-carbolinyl)-acrylate]	4	> 250	0.0589	> 100	35	100	
CON=Cc1cc2c(cn1)[nH]c1ccccc12 [CHNOCH3, beta-carboline-3-carboxaldehyde-oxime-methylether]	15	16	0.0513				
CC(=O)ON=Cc1cc2c(cn1)[nH]c1ccccc12 [CHNOCOCH3]		> 250	0.169				
ON=Cc1cc2c(cn1)[nH]c1ccccc12 [CHNOH, beta-carboline-3-carboxaldehyde-oxime]		19	0.0087				
CN(C)S(=O)(=O)c1ccc2[nH]c3cnc(C=NO)cc3c2c1 [CHNOH, drawing 36]		300	0.0017				
O=Cc1cc2c(cn1)[nH]c1ccccc12 [CHO, beta-carboline-3-carboxaldehyde]	8	> 250	0.0302				
CN(C)S(=O)(=O)c1ccc2[nH]c3cnc(C=O)cc3c2c1 [CHO, drawing 30, 6-dimethylsulfamoyl-beta-carboline-3-carboxaldehyde]		> 300	> 0.1				
O=C(c1ccccc1)c1cc2c(cn1)[nH]c1ccccc12 [COC6 H5, 3-benzoyl-beta-carboline]		223	0.00427				
CCCCC(=O)c1cc2c(cn1)[nH]c1ccccc12 [COCH2 CH2 CH2 CH3, 3-pentanoyl-beta-carboline]		144	0.02				
CNC(=O)CC(=O)c1cc2c(cn1)[nH]c1ccccc12 [COCH2 CONHCH3]		> 250	> 0.1				
CC(=O)c1cc2c(cn1)[nH]c1ccccc12 [COCH3, 3-acetyl-beta-carboline]	35	100	0.0224	> 100	75	100	
O=CNC(=O)c1cc2c(cn1)[nH]c1ccccc12 [CONHCHO, beta-carboline-3-(N-formylcarboxamide)]		197	0.034				
CC(=NO)c1cc2c(cn1)[nH]c1ccccc12 [drawing 11]		186	> 0.1				
CN(C)N=Cc1cc2c(cn1)[nH]c1ccccc12 [drawing 13]		54	0.0417				
CCN(CC)N=Cc1cc2c(cn1)[nH]c1ccccc12 [drawing 23]		72	> 0.1				

Compound	ED50 (male mice; [4]) [mg/kg]	In vivo ED50, inhibition of 3H flunitrazepam binding (Affinity for the benzodiazepine receptor) (benzodiazepine receptor [1]) [mg/kg]	In vitro IC50, inhibition of 3H flunitrazepam binding (Affinity for the benzodiazepine receptor) (benzodiazepine receptor [2]) [µg/mL]	ED50 [3, 5] [mg/kg]	ED50 [3, 6] [mg/kg]	ED50 [3, 7] [mg/kg]	ED50 (male mice; [8]) [mg/kg]
CC(=NN(C)C)c1cc2c(cn1)[nH]c1ccccc12 [drawing 25]		119	> 0.1				
C(=NN1CCCCC1)c1cc2c(cn1)[nH]c1ccccc12 [drawing 27]		> 250	> 0.1				
C(=NN1CCOCC1)c1cc2c(cn1)[nH]c1ccccc12 [drawing 28]		> 250	> 0.1				
C(=NN1CCCC1)c1cc2c(cn1)[nH]c1ccccc12 [drawing 31]		49	> 0.1				
CN(C)N=Cc1cc2c(cn1)[nH]c1ccc(S(=O)(=O)N(C)C)cc12 [drawing 32]		35	0.004				
CN(C)S(=O)(=O)c1ccc2[nH]c3cnc(C=NN4CCCC4)cc3c2c1 [drawing 34]		210	0.008				
CC(=NO)c1cc2c(cn1)[nH]c1ccccc12 [drawing 39]							75
CN(C)N=Cc1cc2c(cn1)[nH]c1ccccc12 [drawing 40]	7.5			20	< 10	< 10	≤ 50
CCN(CC)N=Cc1cc2c(cn1)[nH]c1ccccc12 [drawing 41]				> 100	100	100	
CC(=NN(C)C)c1cc2c(cn1)[nH]c1ccccc12 [drawing 42]				> 100	75	75	
C(=NN1CCCCC1)c1cc2c(cn1)[nH]c1ccccc12 [drawing 43]				> 100	> 100	50	
C(=NN1CCOCC1)c1cc2c(cn1)[nH]c1ccccc12 [drawing 44]				100	50	50	
C(=NN1CCCC1)c1cc2c(cn1)[nH]c1ccccc12 [drawing 45]				20	15	15	
CN(C)N=Cc1cc2c(cn1)[nH]c1ccc(S(=O)(=O)N(C)C)cc12 [drawing 46]				20	15	15	
CN(C)S(=O)(=O)c1ccc2[nH]c3cnc(C=NN4CCCC4)cc3c2c1 [drawing 48]				50	20	20	
